Columns and labels:
[1] = tested on: barnyardgrass; assay: Test D flooded paddy test; format: in vivo, Echinochloa crus-galli; conditions: 250 g ai/ha, applied to paddy water, visual rating after 13 to 14 days, scale 0 to 100 (0 no effect, 100 complete control)
In short: (§1)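 Seedlings reached the 2-leaf stage, then pots were flooded to 3 cm over the soil surface. Compound was applied into the water, depth was maintained, and plants stayed in the greenhouse 13 to 14 days before visual scoring (0–100) relative to controls.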

[2] = tested on: ryegrass, Italian; assay: Test C postemergence; format: in vivo, Lolium multiflorum; conditions: 10 days
In short: (§2)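 Soil-applied (pre) and foliar (post, 1–2 leaf, 2–10 cm) sprays; surfactant-containing non-phytotoxic solvent vehicle; loam/sand substrate. Readout: visual % control at 10 d, greenhouse, versus untreated.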

[3] = tested on: kochia; assay: Test C postemergence; format: in vivo, Bassia scoparia; conditions: 10 days
In short: as §2

[4] = tested on: ducksalad; assay: Test D flooded paddy test; format: in vivo, Heteranthera limosa; conditions: 250 g ai/ha, applied to paddy water, visual rating after 13 to 14 days, scale 0 to 100 (0 no effect, 100 complete control)
In short: as §1

[5] = tested on: soybean; assay: Test C postemergence; format: in vivo, Glycine max; conditions: 10 days
In short: as §2

[6] = tested on: green foxtail; assay: Test C postemergence; format: in vivo, Setaria viridis; conditions: 10 days
In short: as §2

[7] = tested on: wheat; assay: Test C preemergence; format: in vivo, Triticum aestivum; conditions: 0 to 100 scale (0 no effect, 100 complete control)
In short: as §2

[8] = tested on: soybean; assay: Test C preemergence; format: in vivo, Glycine max; conditions: 0 to 100 scale (0 no effect, 100 complete control)
In short: as §2

[9] = tested on: corn; assay: Test C preemergence; format: in vivo, Zea mays; conditions: 0 to 100 scale (0 no effect, 100 complete control)
In short: as §2

[10] = tested on: ragweed; assay: Test C preemergence; format: in vivo, Ambrosia artemisiifolia; conditions: 0 to 100 scale (0 no effect, 100 complete control)
In short: as §2

[11] = tested on: wheat; assay: Test C postemergence; format: in vivo, Triticum aestivum; conditions: 10 days
In short: as §2

[12] = tested on: galium; assay: Test C postemergence; format: in vivo, Galium aparine; conditions: 10 days
In short: as §2

[13] = tested on: rice; assay: Test D flooded paddy test; format: in vivo, Oryza sativa; conditions: 250 g ai/ha, applied to paddy water, visual rating after 13 to 14 days, scale 0 to 100 (0 no effect, 100 complete control)
In short: as §1

[14] = tested on: green foxtail; assay: Test C preemergence; format: in vivo, Setaria viridis; conditions: 0 to 100 scale (0 no effect, 100 complete control)
In short: as §2

[15] = tested on: barnyardgrass; assay: Test C postemergence; format: in vivo, Echinochloa crusgalli; conditions: 10 days
In short: as §2

[16] = tested on: pigweed, palmer; assay: Test C preemergence; format: in vivo, Amaranthus palmeri; conditions: 0 to 100 scale (0 no effect, 100 complete control)
In short: as §2

[17] = tested on: barnyardgrass; assay: Test C preemergence; format: in vivo, Echinochloa crusgalli; conditions: 0 to 100 scale (0 no effect, 100 complete control)
In short: as §2

[18] = tested on: blackgrass; assay: Test C preemergence; format: in vivo, Alopecurus myosuroides; conditions: 0 to 100 scale (0 no effect, 100 complete control)
In short: as §2

[19] = tested on: ragweed; assay: Test C postemergence; format: in vivo, Ambrosia artemisiifolia; conditions: 10 days
In short: as §2

[20] = tested on: horseweed; assay: Test C postemergence; format: in vivo, Erigeron canadensis; conditions: 10 days
In short: as §2

[21] = tested on: pigweed, palmer; assay: Test C postemergence; format: in vivo, Amaranthus palmeri; conditions: 10 days
In short: as §2

[22] = tested on: oat, wild; assay: Test C preemergence; format: in vivo, Avena fatua; conditions: 0 to 100 scale (0 no effect, 100 complete control)
In short: as §2

[23] = tested on: blackgrass; assay: Test C postemergence; format: in vivo, Alopecurus myosuroides; conditions: 10 days
In short: as §2

[24] = tested on: oat, wild; assay: Test C postemergence; format: in vivo, Avena fatua; conditions: 10 days
In short: as §2

[25] = tested on: kochia; assay: Test C preemergence; format: in vivo, Bassia scoparia; conditions: 0 to 100 scale (0 no effect, 100 complete control)
In short: as §2

[26] = tested on: sedge, umbrella; assay: Test D flooded paddy test; format: in vivo, Cyperus difformis; conditions: 250 g ai/ha, applied to paddy water, visual rating after 13 to 14 days, scale 0 to 100 (0 no effect, 100 complete control)
In short: as §1

[27] = tested on: corn; assay: Test C postemergence; format: in vivo, Zea mays; conditions: 10 days
In short: as §2

[28] = tested on: ryegrass, Italian; assay: Test C preemergence; format: in vivo, Lolium multiflorum; conditions: 0 to 100 scale (0 no effect, 100 complete control)
In short: as §2

[29] = 125 g ai/ha, postemergence, 0 to 100 scale, 0 no effect, 100 complete control
[30] = Postemergence, 500 g ai/ha, visual 0 to 100 scale (0 no effect, 100 complete control)
[31] = Preemergence, 500 g ai/ha, visual rating after 10 days
[32] = Test C, preemergence, 125 g ai/ha

Cc1ccc(-n2cnc(C(C)C)n2)cc1C(=O)N1C[C@H](C)Oc2c1cccc2C(F)(F)F [Compound 170] was tested, and the “Plant response rating, Barnyardgrass (Flood)” value [1] was 0, the “Plant response rating, Ryegrass, Italian” value [2, 29] was 60 and the “Plant response rating, Ryegrass, Italian” value [2, 30] was 90. For the same molecule, the “Plant response rating, Kochia” value [3, 29] was 80, the “Plant response rating, Kochia” value [3, 30] was 100 and the “Plant response rating, Ducksalad (Flood)” value [4] was 55. For the same molecule, the “Plant response rating, Soybean” value [5, 29] was 100, the “Plant response rating, Soybean” value [5, 30] was 100 and the “Plant response rating, Foxtail, Green” value [6, 29] was 20. The “Plant response rating, Foxtail, Green” value [6, 30] was 90, the “Plant response rating, Wheat” value [7, 31] was 90 and the “Wheat plant response rating” value [7, 32] was 50. For the same molecule, the “Plant response rating, Soybean” value [8, 31] was 100, the “Soybean plant response rating” value [8, 32] was 70 and the “Plant response rating, Corn” value [9, 31] was 20. For the same molecule, the “Corn plant response rating” value [9, 32] was 20, the “Plant response rating, Ragweed” value [10, 31] was 70 and the “Ragweed plant response rating” value [10, 32] was 20. The “Plant response rating, Wheat” value [11, 29] was 10, the “Plant response rating, Wheat” value [11, 30] was 50 and the “Plant response rating, Galium” value [12, 29] was 100. For the same molecule, the “Plant response rating, Galium” value [12, 30] was 100, the “Plant response rating, Rice (Flood)” value [13] was 15 and the “Plant response rating, Foxtail, Green” value [14, 31] was 100. The “Foxtail, Green plant response rating” value [14, 32] was 100, the “Plant response rating, Barnyardgrass” value [15, 29] was 20 and the “Plant response rating, Barnyardgrass” value [15, 30] was 50. For the same molecule, the “Plant response rating, Pigweed, Palmer” value [16, 31] was 100, the “Pigweed, Palmer plant response rating” value [16, 32] was 100 and the “Plant response rating, Barnyardgrass” value [17, 31] was 100. For the same molecule, the “Barnyardgrass plant response rating” value [17, 32] was 90, the “Plant response rating, Blackgrass” value [18, 31] was 80 and the “Blackgrass plant response rating” value [18, 32] was 50. For the same molecule, the “Plant response rating, Ragweed” value [19, 29] was 70, the “Plant response rating, Ragweed” value [19, 30] was 90 and the “Plant response rating, Horseweed” value [20, 29] was 80. For the same molecule, the “Plant response rating, Horseweed” value [20, 30] was 90, the “Plant response rating, Pigweed, Palmer” value [21, 29] was 100 and the “Plant response rating, Pigweed, Palmer” value [21, 30] was 100. The “Plant response rating, Oat, Wild” value [22, 31] was 80, the “Oat, Wild plant response rating” value [22, 32] was 60 and the “Plant response rating, Blackgrass” value [23, 29] was 30. For the same molecule, the “Plant response rating, Blackgrass” value [23, 30] was 80, the “Plant response rating, Oat, Wild” value [24, 29] was 20 and the “Plant response rating, Oat, Wild” value [24, 30] was 60. For the same molecule, the “Plant response rating, Kochia” value [25, 31] was 100, the “Kochia plant response rating” value [25, 32] was 90 and the “Plant response rating, Sedge, Umbrella (Flood)” value [26] was 95. For the same molecule, the “Plant response rating, Corn” value [27, 29] was 30, the “Plant response rating, Corn” value [27, 30] was 50 and the “Plant response rating, Ryegrass, Italian” value [28, 31] was 100. The “Ryegrass, Italian plant response rating” value [28, 32] was 80.
